# According to publication PMC5605781 (Journal of medicinal chemistry, 2017):
# pEC50, pIC50: −log10 of the molar value.
# Legend:
# HIV-1 = conditions: antiviral activity; cited from earlier work
# [1] = tested on: seven HIV-1 variants selected in vitro with SQV, APV, LPV, IDV, NFV, ATV, TPV; test: microbe, parasite or virus in culture; type: cell-based; conditions: Human immunodeficiency virus 1, read-out: IC50 values, range over variants
# HIV-1NL4-3 = test: Antiviral p24 assay in MT-4 cells, wild-type HIV-1NL4-3; type: cell-based; conditions: wild-type HIV-1NL4-3, compared to DRV
Compound,pEC50 (HIV-1),pIC50 [1],factor of more potent block of replication compared to DRV (HIV-1NL4-3)
COc1ccc(S(=O)(=O)N(CC(C)C)C[C@@H](O)[C@H](Cc2ccccc2)NC(=O)O[C@H]2CO[C@H]3OCC[C@H]32)cc1 [Inhibitor 3],9.30,–,–
"CC(C)CN(C[C@@H](O)[C@H](Cc1ccccc1)NC(=O)O[C@H]1C2CO[C@H]3OCC1C3C2)S(=O)(=O)c1ccc2nc(NC3CC3)sc2c1 (stereo partly drawn) [Inhibitor 5, (3S,7aS,8S)-Hexahydro-4H-3,5-methanofuro[2,3-b]pyran-8-yl ((2S,3R)-4-((2-(cyclopropylamino)-N-isobutylbenzo[d]thiazole)-6-sulfonamido)-3-hydroxy-1-phenylbutan-2-yl)carbamate]",–,9.57 to 11.59,10
